Results reported in patent US10765642B2, “Composition for preventing or treating muscle weakness-related diseases comprising sobrerol” (KOREA RESEARCH INSTITUTE OF BIOSCIENCE AND BIOTECHNOLOGY, priority 2015, dated 2020).

Test system: male C57BL/6 mice
Assay: treadmill test after hind limb immobilization and remobilization
Assay type: in vivo
Conditions: immobilized mice
Experimental: A total of 45 male C57BL/6 mice at 5 weeks of age (Daehan BioLink) were used in this animal experiment. After 2 weeks of adaptation to the surrounding environment, sobrerol was orally administered twice daily since 7 weeks of age. The control group was administered with 200 μL of water/20 g of mouse, and sobrerol was orally administered at a ratio of 1:2:4 [8.8 mg/200 μL/20 g (mouse), 17.6 mg/200 μL/20 g (mouse) and 35.3 mg/200 μL/20 g (mouse)] to verify dose dependency. At 8 weeks of age, both hind limbs of the mice were immobilized for 10 days using a surgical stapler (Autosuture Royal 35W stapler). (A novel hindlimb immobilization procedure for studying skeletal muscle atrophy and recovery in mouse. J Appl Physiol 106: 2049-2059, 2009). After removing the surgical stapler, they were allowed to move again for 3 days (remobilization), and then exercise capability improvement-verification tests (treadmill, and grip tests) were conducted. The equipment shown in FIG. 8 was used for the treadmill test. The treadmill test was conducted as shown in FIG. 9 with reference to the treadmill protocol of used for the treadmill test (DOI 10.1016/j.cell.2006.11.013_Cell, Volume 127 Supplemental Data). One day prior to the treadmill test, the equipment was warmed up at a rate of 6 m/min for 10 minutes. At the starting point, electric stimulation was configured to flow so that the mice were forced to exercise. The next day, the test was started at a speed of 8 m/min and the speed was increased by 2 m/min every 20 minutes. One hour after the start of the treadmill test, the speed of 12 m/min was maintained, and the angle was increased by 5° and the electric stimulation was turned off. After 20 minutes, the angle of 5° was maintained but only the speed was increased by 2 m/min. Under the above condition, the running times of the mice were measured and recorded.

Structure (SMILES): CC1=CCC(C(C)(C)O)CC1O (stereo not drawn) [sobrerol]
- treadmill running time versus group administered with distilled water (8.8 mg/kg oral, still shorter than non-immobilization group): slightly longer
- treadmill running time versus non-immobilization group (17.6 mg/kg oral): almost similar to the non-immobilization group
- treadmill running time versus non-immobilization group (35.3 mg/kg oral): longer as compared to the non-immobilization group
